# Target: Human plasma kallikrein (Homo sapiens (Human), UniProt P03952)
# Experiment: In vitro plasma kallikrein inhibition assay (chromogenic substrate D-Pro-Phe-Arg-pNa, absorbance at 405 nm, IC50 determination)
# Type: biochemical
# Conditions: not given
# Sequence of Human plasma kallikrein (P03952 391-638): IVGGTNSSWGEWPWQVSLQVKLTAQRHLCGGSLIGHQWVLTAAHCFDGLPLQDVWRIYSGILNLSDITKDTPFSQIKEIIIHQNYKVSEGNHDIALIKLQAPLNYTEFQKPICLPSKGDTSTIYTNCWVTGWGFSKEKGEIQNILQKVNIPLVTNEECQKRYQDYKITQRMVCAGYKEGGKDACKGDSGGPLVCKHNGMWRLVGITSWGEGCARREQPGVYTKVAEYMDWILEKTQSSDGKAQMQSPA
# Sequence of Human plasma kallikrein (P03952 20-390 partner): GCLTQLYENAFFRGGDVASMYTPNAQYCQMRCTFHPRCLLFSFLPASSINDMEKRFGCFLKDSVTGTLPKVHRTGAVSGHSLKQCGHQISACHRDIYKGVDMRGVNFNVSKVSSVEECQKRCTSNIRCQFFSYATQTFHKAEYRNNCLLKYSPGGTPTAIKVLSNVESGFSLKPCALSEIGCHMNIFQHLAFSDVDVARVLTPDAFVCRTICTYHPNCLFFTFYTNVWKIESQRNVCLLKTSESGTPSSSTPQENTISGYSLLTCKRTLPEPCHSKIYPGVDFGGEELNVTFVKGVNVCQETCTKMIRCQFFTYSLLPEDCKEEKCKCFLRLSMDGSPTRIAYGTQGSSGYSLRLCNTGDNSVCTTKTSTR
row,SMILES,KLKB1 pIC50
1,"CCc1cc2c(cc1-c1ccc(F)cc1F)C1OC2c2ccc(C(=O)NCc3c(C)cc(N)nc3C)cc21 (racemic) [Example 321, (±)-N-[(6-amino-2,4-dimethyl-pyridin-3-yl)methyl]-12-(2,4-difluorophenyl)-11-ethyl-15-oxatetracyclo[6.6.1.0^2,^7.0^9,1^4] pentadeca-2,4,6,9(14),10,12-hexaene-4-carboxamide and (±)-N-[(6-amino-2,4-dimethylpyridin-3-yl)methyl]-11-(2,4-difluorophenyl)-12-ethyl-15-oxatetracyclo [6.6.1.0^2,^7.0^9,1^4]pentadeca-2,4,6,9(14),10,12-hexaene-4-carboxamide]",8.09
2,"Cc1cc(N)nc(C)c1CNC(=O)c1ccc2c(c1)C1OC2(C)c2ccc(-c3ccc(F)cc3)cc21 (racemic) [Example 334, (±)-N-[(6-amino-2,4-dimethyl-pyridin-3-yl)methyl]-12-(4-fluorophenyl)-8-methyl-15-oxatetracyclo[6.6.1.0^2,^7.0^9,1^4] pentadeca-2,4,6,9,11,13-hexaene-4-carboxamide (±)-N-[(6-amino-2,4-dimethylpyridin-3-yl)methyl]-11-(4-fluorophenyl)-8-methyl-15-oxatetracyclo[6.6.1.0^2,^7.0^9,1^4] pentadeca-2,4,6,9,11,13-hexaene-4-carboxamide]",5.6
3,"Cc1cc(N)nc(C)c1CNC(=O)c1ccc2c(c1)C1OC2c2c(C)cc(-c3ccc(F)cc3)cc21 (racemic) [Example 340, (±)-N-[(6-amino-2,4-dimethyl-pyridin-3-yl)methyl]-12-(4-fluorophenyl)-10-methyl-15-oxatetracyclo[6.6.1.0^2,^7.0^9,1^4] pentadeca-2,4,6,9(14),10,12-hexaene-4-carboxamide and (±)-N-[(6-amino-2,4-dimethylpyridin-3-yl)methyl]-11-(4-fluorophenyl)-13-methyl-15-oxatetracyclo [6.6.1.0^2,^7.0^9,1^4]pentadeca-2,4,6,9(14),10,12-hexaene-4-carboxamide]",6.64

# Same assay, conditions: read-out: KLKB1 pIC50 (converted)
row,SMILES,IC50 [nM]
1,"Cc1cc(N)nc(C)c1CNC(=O)c1ccc2c(c1)[C@@H]1O[C@H]2c2cc(-c3ccccc3F)ccc21 (single isomer, unassigned) [Example 130]",195
2,"Cc1cc(N)nc(C)c1CNC(=O)c1ccc2c(c1)[C@@H]1O[C@H]2c2ccc(-c3ccc(F)c(F)c3F)cc21 (single isomer, unassigned) [Example 138]",24
3,"Cc1cc(N)nc(C)c1CNC(=O)c1ccc2c(c1)[C@@H]1O[C@H]2c2ccc(-c3ccc(Cl)cc3C#N)cc21 (single isomer, unassigned) [Example 139]",3.02
4,"Cc1ccc(-c2ccc3c(c2)[C@H]2O[C@@H]3c3ccc(C(=O)NCc4c(C)cc(N)nc4C)cc32)c(C#N)c1 (single isomer, unassigned) [Example 140]",5.01
5,"Cc1cc(N)nc(C)c1CNC(=O)c1ccc2c(c1)[C@@H]1O[C@H]2c2ccc(-c3ccc(Cl)c(F)c3F)cc21 (single isomer, unassigned) [Example 145]",17.4
6,"Cc1cc(N)nc(C)c1CNC(=O)c1ccc2c(c1)[C@@H]1O[C@H]2c2ccc(-c3ccc(Cl)cc3F)cc21 (single isomer, unassigned) [Example 174]",46.8
7,"Cc1cc(N)nc(C)c1CNC(=O)c1ccc2c(c1)[C@@H]1O[C@H]2c2ccc(-c3ccc(F)cc3Cl)cc21 (single isomer, unassigned) [Example 176]",67.6
8,"COc1ccc(-c2ccc3c(c2)[C@H]2O[C@@H]3c3ccc(C(=O)NCc4c(C)cc(N)nc4C)cc32)c(F)n1 (single isomer, unassigned) [Example 177]",117
9,"Cc1cc(N)nc(C)c1CNC(=O)c1ccc2c(c1)[C@@H]1O[C@H]2c2ccc(Cn3cc(F)cn3)cc21 (single isomer, unassigned) [Example 178]",1
10,"Cc1cc(N)nc(C)c1CNC(=O)c1ccc2c(c1)[C@@H]1O[C@H]2c2ccc(Cn3cc(Cl)cn3)cc21 (single isomer, unassigned) [Example 179]",1
11,"CCc1cc(N)nc(C)c1CNC(=O)c1ccc2c(c1)[C@@H]1O[C@H]2c2ccc(-c3ccc(F)cc3F)cc21 (single isomer, unassigned) [Example 183]",12
12,"Cc1cc(N)nc(C)c1CNC(=O)c1ccc2c(c1)[C@@H]1O[C@H]2c2cc(Oc3cccc(F)c3)ccc21 (single isomer, unassigned) [Example 184]",75.9

# Other lines, results leading:
row,IC50 [nM],SMILES
1,851,"Cc1cc(N)nc(C)c1CNC(=O)c1ccc2c(c1)C1OC2c2cc(C#N)c(C#N)cc21 (racemic) [Example 326, (±)-N-((6-amino-2,4-dimethylpyridin-3-yl)methyl]-11,12-dicyano-15-oxatetracyclo-[6.6.1.0^2,^7.0^9,1^4]pentadeca-2,4,6,9,11,13-hexaene-4-carboxamide]"
2,1620,"COc1cc2c(cc1OC)C1OC2c2ccc(C(=O)NCc3c(C)cc(N)nc3C)cc21 (racemic) [Example 335, (±)-N-[(6-amino-2,4-dimethylpyridin-3-yl)methyl]-11,12-dimethoxy-15-oxatetracyclo[6.6.1.0^2,^7.0^9,1^4] pentadeca-2,4,6,9(14),10,12-hexaene-4-carboxamide]"
3,550,"Cc1cc(N)nc(C)c1CNC(=O)c1ccc2c(c1)C1OC2c2cc3c(cc21)OCCO3 (racemic) [Example 342, (±)-N-[(6-amino-2,4-dimethylpyridin-3-yl)methyl]-5,8,19-trioxapentacyclo-[10.6.1.0^2,11.0^4,^9.0^13,1^8]nonadeca-2,4(9),10,13,15,17-hexaene-15-carboxamide]"
4,427,"CC12OC(C)(c3cc(C(=O)NCc4ccc(C(=N)N)cc4)ccc31)c1cc(-c3ccc(F)cc3)ccc12 (racemic) [Example 344, N-[(4-carbamimidoylphenyl)methyl]-12-(4-fluorophenyl)-1,8-dimethyl-15-oxatetracyclo [6.6.1.0^2,^7.0^9,1^4]pentadeca-2,4,6,9,11,13-hexaene-4-carboxamide]"
5,5.01,"Cc1cc(-c2ccc(F)cc2)cc2c1C1OC2c2cc(C(=O)NCc3ccc(C(=N)N)cc3)cc(F)c21 (racemic) [Example 396, (±)-N-[(4-carbamimidoylphenyl)methyl]-6-fluoro-12-(4-fluorophenyl)-10-methyl-15-oxatetracyclo[6.6.1.0^2,^7.0^9,1^4] pentadeca-2(7),3,5,9(14),10,12-hexaene-4-carboxamide]"
6,20,"Cc1cc(N)nc(C)c1CNC(=O)c1cc(F)c2c(c1)C1OC2c2c(C)cc(-c3ccc(F)cc3)cc21 (racemic) [Example 397, (±)-N-(6-amino-2,4-dimethylpyridin-3-yl) methyl]-6-fluoro-12-(4-fluorophenyl)-10-methyl-15-oxatetracyclo[6.6.1.0^2,^7.0^9,1^4] pentadeca-2(7),3,5,9(14),10,12-hexaene-4-carboxamide]"
7,398,"Cc1cc(N)nc(C)c1CNC(=O)c1cc(F)c2c(c1)C1OC2c2cc(-c3ccc(F)cc3)cc(C)c21 (racemic) [Example 398, N-[(6-amino-2,4-dimethyl-pyridin-3-yl)methyl]-6-fluoro-11-(4-fluorophenyl)-13-methyl-15-oxatetracyclo[6.6.1.0^2,^7.0^9,1^4] pentadeca-2,4,6,9(14),10,12-hexaene-4-carboxamide]"
8,2240,"Cc1cc(N)nc(C)c1CNC(=O)c1ccc2c(c1)[C@@H]1O[C@H]2c2ccc(Oc3ccn(C)n3)cc21 (single isomer, unassigned) [Example 185]"
